Measurements as given in patent US9249129B2, “Morpholino substituted urea derivatives as mTOR inhibitors” (CELLZOME LIMITED, priority 2010, dated 2016).

Assays:
PI3Kβ = target: T1, PI3Kβ (Homo sapiens, UniProt P42338); experiment: kinobeads assay, PI3K beta (dot blot detection); format: binding; conditions: Table 4, read-out: Inhibition values (IC50) PI3Kb
T1 construct: endogenous in cells; host or cells: Jurkat cells (ATCC TIB-152) lysate, the only lysate described

[1] = test system: Akt serine-473 phosphorylation in HEK293T/17 cells; experiment: In vitro phospho-Akt cellular assay (pAkt S473); format: cell-based; conditions: Homo sapiens, Table 6, 2 hours, Akt Ser473, read-out: pAKT (Phospho-Akt cell assay data, activity level)
From the text: In Vitro Phospho-S6 and Phospho-Akt Cellular Assay
Activation of mTOR signaling results in phosphorylation of several downstream targets. In cells, mTOR exists in two different protein complexes. The mTOR Complex-1 (mTORC1) phosphorylates and activates S6 Kinase 1 (S6K1) and S6 Kinase 2 (S6K2) (also known as p70S6K) which then phosphorylate S6 Ribosomal Protein (S6RP) (also known as RPS6). S6RP is phosphorylated on serine 235, serine 236, serine 240 and serine 244 by both pS6K1 and pS6K2. The mTOR Complex-2 (mTORC2) phosphorylates AKT on serine 473 which activates the AKT signaling pathway.
The assay measures a test compound's inhibition of S6RP serine-240/244 phosphorylation and inhibition of Akt serine-473 phosphorylation in human embryonic kidney derived HEK293T/17 cells (ATCC CRL-11268).
The HEK293T/17 cell line is maintained in DMEM media (Invitrogen catalogue number 41965-039) supplemented with 10% FCS at 37° C. in a 5% CO2 humidified incubator.
Cells are seeded in 96-well plates at 40,000 cells/well (pS6RP S240/244 assay) or 80,000 cells/well (pAkt 5473 assay) in 90 μl growth media (DMEM, 2% FCS). Plates are incubated for 1 hour in a humidified incubator to allow the cells to adhere. Cells are treated with 8 concentrations of test compounds or DMSO alone for controls (final DMSO concentration 0.1%) and incubated at 37° C. for 2 hours. Then 20 μl of 5× concentrated lysis buffer (750 mM NaCl, 100 mM Tris pH7.4, 5 mM EDTA, 5 mM EGTA, 5% Triton X-100) is added, plates are sealed and incubated for 15 minutes at 4° C. with gentle shaking. After cell lysis, 25 μl cell lysate is transferred to a MesoScale plate coated with an antibody to pS6RP Ser240/244 (MesoScale Discovery K150DGD-3) or an antibody to pAkt Ser 473 (MesoScale Discovery K151DGD-3). Plates have been blocked before by incubation with 150 μl MesoScale Discovery Blocking Solution-A for 1 hour at room temperature followed by washing with 150 μl 1× Tris wash buffer per well. After the transfer of the cell lysate to the MSD plate, the pS6RP (or pAkt) protein is captured on the coated antibody by incubation at room temperature for 1 hour with gentle shaking. After the capture step the plate is washed three times with 150 μl of 1× Tris wash buffer per well. Then 25 μl detection antibody conjugated with a Sulfo-Tag is added and incubated for 1 hour at room temperature with gentle shaking. Subsequently the antibody solution is removed and the plate is washed 3 times with 150 μl 1× Tris wash buffer per well and 150 μl Read buffer is added. The plates are analysed on a MSD 2400 Plate Reader (MesoScale Discovery). Data analysis is performed using nonlinear regression for a sigmoidal dose-response with a variable slope.

T1 sequence (P42338 whole entry): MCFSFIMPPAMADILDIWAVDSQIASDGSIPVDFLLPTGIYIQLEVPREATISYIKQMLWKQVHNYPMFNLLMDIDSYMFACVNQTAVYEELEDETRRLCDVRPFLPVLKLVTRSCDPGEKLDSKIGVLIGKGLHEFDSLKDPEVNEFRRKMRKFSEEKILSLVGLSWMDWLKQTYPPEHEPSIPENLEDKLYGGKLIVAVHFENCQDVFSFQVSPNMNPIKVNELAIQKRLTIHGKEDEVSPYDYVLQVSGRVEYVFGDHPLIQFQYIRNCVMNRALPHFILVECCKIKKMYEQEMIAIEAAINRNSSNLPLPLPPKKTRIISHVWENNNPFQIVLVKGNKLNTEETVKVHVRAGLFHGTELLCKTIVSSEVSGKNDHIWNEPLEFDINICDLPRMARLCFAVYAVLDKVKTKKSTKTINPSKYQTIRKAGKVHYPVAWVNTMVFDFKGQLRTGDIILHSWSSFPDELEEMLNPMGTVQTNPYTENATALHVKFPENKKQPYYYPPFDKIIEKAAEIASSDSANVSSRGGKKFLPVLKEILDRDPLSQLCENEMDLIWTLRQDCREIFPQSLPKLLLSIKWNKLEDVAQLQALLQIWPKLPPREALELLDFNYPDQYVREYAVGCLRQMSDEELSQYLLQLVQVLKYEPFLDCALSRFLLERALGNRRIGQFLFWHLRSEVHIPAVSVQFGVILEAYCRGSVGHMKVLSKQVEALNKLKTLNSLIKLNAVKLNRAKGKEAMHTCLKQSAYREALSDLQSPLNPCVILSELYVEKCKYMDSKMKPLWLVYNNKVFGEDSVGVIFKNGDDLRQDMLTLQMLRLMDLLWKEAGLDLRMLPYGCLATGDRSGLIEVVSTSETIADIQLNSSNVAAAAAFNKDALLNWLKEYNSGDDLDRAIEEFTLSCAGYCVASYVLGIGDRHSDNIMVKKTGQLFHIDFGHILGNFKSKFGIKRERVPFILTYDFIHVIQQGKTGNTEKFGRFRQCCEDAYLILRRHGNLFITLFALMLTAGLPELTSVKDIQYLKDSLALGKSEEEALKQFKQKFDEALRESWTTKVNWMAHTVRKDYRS
T1 sequence (P27986 whole entry partner): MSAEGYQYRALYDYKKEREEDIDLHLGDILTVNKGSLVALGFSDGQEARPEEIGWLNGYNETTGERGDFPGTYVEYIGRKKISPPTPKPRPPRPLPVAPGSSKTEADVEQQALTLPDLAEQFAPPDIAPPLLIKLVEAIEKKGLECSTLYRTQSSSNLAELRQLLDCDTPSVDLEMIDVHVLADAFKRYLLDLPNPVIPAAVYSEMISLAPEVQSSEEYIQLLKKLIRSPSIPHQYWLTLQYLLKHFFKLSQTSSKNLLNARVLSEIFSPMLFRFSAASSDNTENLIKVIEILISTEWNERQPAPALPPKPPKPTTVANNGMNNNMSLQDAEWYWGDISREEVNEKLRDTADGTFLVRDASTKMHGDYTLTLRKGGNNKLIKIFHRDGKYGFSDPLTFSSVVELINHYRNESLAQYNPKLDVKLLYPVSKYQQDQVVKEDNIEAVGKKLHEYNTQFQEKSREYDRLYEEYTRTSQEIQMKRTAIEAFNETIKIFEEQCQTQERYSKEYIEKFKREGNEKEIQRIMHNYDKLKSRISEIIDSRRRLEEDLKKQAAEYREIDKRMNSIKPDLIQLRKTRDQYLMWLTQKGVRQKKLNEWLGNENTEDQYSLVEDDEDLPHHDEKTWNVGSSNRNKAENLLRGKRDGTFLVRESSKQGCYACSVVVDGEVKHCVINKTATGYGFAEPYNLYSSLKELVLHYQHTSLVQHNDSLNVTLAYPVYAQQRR

## CCNC(=O)Nc1ccc(-c2cc(-c3cc(F)ccc3S(C)(=O)=O)nc(N3CCOC[C@@H]3C)n2)cc1 [Example 2, (S)-1-ethyl-3-(4-(6-(5-fluoro-2-(methylsulfonyl)phenyl)-2-(3-methylmorpholino)pyrimidin-4-yl)phenyl)urea]
PI3Kβ
  IC50: ≥ 10 µM
[1]
  IC50: < 0.1 µM

## C[C@H]1COCCN1c1nc(-c2ccc(NC(=O)NC3CC3)cc2)cc(-c2ccccc2S(C)(=O)=O)n1 [Example 4, (S)-1-cyclopropyl-3-(4-(2-(3-methylmorpholino)-6-(2-(methylsulfonyl)phenyl)pyrimidin-4-yl)phenyl)urea]
PI3Kβ
  IC50: ≥ 10 µM

## C[C@H]1COCCN1c1cc(-c2ccccc2S(C)(=O)=O)nc(-c2ccc(NC(=O)NC3CC3)cc2)n1 [Example 6, (S)-1-cyclopropyl-3-(4-(4-(3-methylmorpholino)-6-(2-(methylsulfonyl)phenyl)pyrimidin-2-yl)phenyl)urea]
PI3Kβ
  IC50: ≥ 10 µM
[1]
  IC50: < 0.1 µM

## C[C@H]1COCCN1c1cc(-c2ccc(F)nc2)nc(-c2ccc(NC(=O)NC3CC3)cc2)n1 [Example 21, (S)-1-cyclopropyl-3-(4-(4-(6-fluoropyridin-3-yl)-6-(3-methylmorpholino)pyrimidin-2-yl)phenyl)urea]
PI3Kβ
  IC50: ≥ 10 µM
[1]
  IC50: 0.1 to 1 µM

## C[C@H]1COCCN1c1cc(-c2cncc(F)c2)nc(-c2ccc(NC(=O)NC3CC3)cc2)n1 [Example 23, (S)-1-cyclopropyl-3-(4-(4-(5-fluoropyridin-3-yl)-6-(3-methylmorpholino)pyrimidin-2-yl)phenyl)urea]
PI3Kβ
  IC50: ≥ 10 µM
[1]
  IC50: < 0.1 µM

## C[C@H]1COCCN1c1nc(-c2ccc(NC(=O)NC3CC3)cc2)cc(-c2cc(F)ccc2S(C)(=O)=O)n1 [Example 40, (S)-1-cyclopropyl-3-(4-(6-(5-fluoro-2-(methylsulfonyl)phenyl)-2-(3-methylmorpholino)pyrimidin-4-yl)phenyl)urea]
PI3Kβ
  IC50: ≥ 10 µM
[1]
  IC50: < 0.1 µM

## C[C@H]1COCCN1c1nc(-c2ccc(NC(=O)NCCO)cc2)cc(-c2cc(F)ccc2S(C)(=O)=O)n1 [Example 41, (S)-1-(4-(6-(5-fluoro-2-(methylsulfonyl)phenyl)-2-(3-methylmorpholino)pyrimidin-4-yl)phenyl)-3-(2-hydroxyethyl)urea]
PI3Kβ
  IC50: ≥ 10 µM
[1]
  IC50: < 0.1 µM

## C[C@H]1COCCN1c1cc(-c2ccccn2)nc(-c2ccc(NC(=O)NC3CC3)cc2)n1 [Example 42, (S)-1-cyclopropyl-3-(4-(4-(3-methylmorpholino)-6-(pyridin-2-yl)pyrimidin-2-yl)phenyl)urea]
PI3Kβ
  IC50: ≥ 10 µM
[1]
  IC50: < 0.1 µM

## C[C@H]1COCCN1c1cc(-c2ccccn2)nc(-c2ccc(NC(=O)NCCO)cc2)n1 [Example 43, (S)-1-(2-hydroxyethyl)-3-(4-(4-(3-methylmorpholino)-6-(pyridin-2-yl)pyrimidin-2-yl)phenyl)urea]
PI3Kβ
  IC50: ≥ 10 µM
[1]
  IC50: < 0.1 µM

## C[C@H]1COCCN1c1nc(-c2ccc(NC(=O)NCCF)cc2)cc(-c2cc(F)ccc2S(C)(=O)=O)n1 [Example 44, (S)-1-(4-(6-(5-fluoro-2-(methylsulfonyl)phenyl)-2-(3-methylmorpholino)pyrimidin-4-yl)phenyl)-3-(2-fluoroethyl)urea]
PI3Kβ
  IC50: ≥ 10 µM
[1]
  IC50: < 0.1 µM

## C[C@H]1COCCN1c1nc(-c2ccc(NC(=O)NC3CC3)cc2)cc(-c2cccnc2S(C)(=O)=O)n1 [Example 46, (S)-1-cyclopropyl-3-(4-(2-(3-methylmorpholino)-6-(2-(methylsulfonyl)pyridin-3-yl)pyrimidin-4-yl)phenyl)urea]
PI3Kβ
  IC50: ≥ 10 µM
[1]
  IC50: < 0.1 µM

## C[C@H]1COCCN1c1nc(-c2ccc(NC(=O)NCC(F)F)cc2)cc(-c2cc(F)ccc2S(C)(=O)=O)n1 [Example 47, (S)-1-(2,2-difluoroethyl)-3-(4-(6-(5-fluoro-2-(methylsulfonyl)phenyl)-2-(3-methylmorpholino)pyrimidin-4-yl)phenyl)urea]
PI3Kβ
  IC50: ≥ 10 µM
[1]
  IC50: < 0.1 µM

## C[C@H]1COCCN1c1ccnc(-c2ccc(NC(=O)Nc3ccncc3)cc2)n1 [Example 60, (S)-1-(4-(4-(3-methylmorpholino)pyrimidin-2-yl)phenyl)-3-(pyridin-4-yl)urea]
PI3Kβ
  IC50: ≥ 10 µM
[1]
  IC50: < 0.1 µM

## O=C(Nc1ccncc1)Nc1ccc(-c2nccc(N3CC4CCC(C3)O4)n2)cc1 [Example 61, 1-(4-(4-(8-oxa-3-azabicyclo[3.2.1]octan-3-yl)pyrimidin-2-yl)phenyl)-3-(pyridin-4-yl)urea]
PI3Kβ
  IC50: ≥ 10 µM
[1]
  IC50: < 0.1 µM

## CS(=O)(=O)c1ccc(F)cc1-c1cc(-c2ccc(NC(=O)NCCO)cc2)nc(N2CCOCC2)n1 [Example 62, 1-(4-(6-(5-fluoro-2-(methylsulfonyl)phenyl)-2-morpholinopyrimidin-4-yl)phenyl)-3-(2-hydroxyethyl)urea]
PI3Kβ
  IC50: ≥ 10 µM
[1]
  IC50: < 0.1 µM

## C[C@H]1COCCN1c1nc(-c2ccc(NC(=O)NCCCO)cc2)cc(-c2cc(F)ccc2S(C)(=O)=O)n1 [Example 64, (S)-1-(4-(6-(5-fluoro-2-(methylsulfonyl)phenyl)-2-(3-methylmorpholino)pyrimidin-4-yl)phenyl)-3-(3-hydroxypropyl)urea]
PI3Kβ
  IC50: ≥ 10 µM
[1]
  IC50: < 0.1 µM

## C[C@H]1COCCN1c1nc(-c2ccc(NC(=O)N[C@H]3CCC[C@@H]3O)cc2)cc(-c2cc(F)ccc2S(C)(=O)=O)n1 [Example 76, 1-(4-(6-(5-fluoro-2-(methylsulfonyl)phenyl)-2-((S)-3-methylmorpholino)pyrimidin-4-yl)phenyl)-3-((1S,2S)-2-hydroxycyclopentyl)urea]
PI3Kβ
  IC50: ≥ 10 µM
[1]
  IC50: < 0.1 µM
